Measurements published in US9351974B2, “Substituted pteridinones for the treatment of cancer” (OSI Pharmaceuticals, LLC, priority 2011, dated 2016).

Each compound was assayed against T1, His-tagged full-length RSK2 (RPS6KA3) (Homo sapiens, UniProt P51812) (assay: RSK2 Omnia Assay for compound IC50 determination). Conditions: ATP 15 μM, n=2, read-out: Mean RSK2 Biochem IC50.
T1 construct: His-tagged full-length RSK2 (RPS6KA3, Invitrogen PV3323); His; purchased Invitrogen PV3323
Assay type: biochemical
Description: RSK1 & RSK2 Omnia Assay Protocol for Compound IC50 Determination
The Omnia Assay (Invitrogen) has been optimized for His-tagged full length RSK1 (RPS6KA1, Millipore 14-509) and for His-tagged full-length RSK2 (RPS6KA3, Invitrogen PV3323). In this assay system, Omnia ST Peptide 6 (Invitrogen KNZ1061) functions as a substrate for RSK1 or RSK2. Phosphorylation of this SOX-containing peptide results in an increase in fluorescence at 485 nm upon excitation at 360 nm.
Assays are carried out in 384-well OptiPlates (Perkin Elmer 6007290) in a total volume of 20 μL containing RSK1 ([…]) or RSK2 ([…]), Omnia ST Peptide 6 (5 μM), ATP (15 μM, Km=16.3 μM), and test compound (variable) in RSK assay buffer (50 mM HEPES, pH 7.5, 10 mM MgCl2, 0.01% Tween-20, 1% glycerol, 1 mM DTT, 1 mM EGTA, 0.01% BSA) with 1% DMSO.
IC50s for test compounds are typically determined using an 11-point three-fold serial dilution with a final assay concentration ranging either from 170 μM to […] or from 17 μM to […]. All compound concentrations are assayed in duplicate. Initial compound dilutions are prepared at 100× concentration in 100% DMSO from a 10 mM stock solution. Compounds are further diluted 1:25 in assay buffer resulting in a 4× concentrated solution.
To run the assay 5 μL of the above 4× concentrated compound solution (or 4% DMSO for positive controls) is added to the assay plate followed by 5 μL of a solution containing peptide (20 μM) and ATP (60 μM) in assay buffer. The reaction is initiated by the addition of 10 μL of RSK1 ([…]) or RSK2 ([…]) in assay buffer, or assay buffer alone for negative controls. The increase in fluorescence due to peptide phosphorylation is monitored continuously as a function of time using a Spectramax M5 plate reader (Molecular Devices) equipped with SoftMax Pro software.
The slopes from the linear portion of progress curves are used to determine IC50 values by non-linear curve-fitting to a four-parameter equation using GraphPad Prism (GraphPad Software, Inc.) or XLFit (IDBS). IC50's are determined in duplicate (n=2) and Ki values are calculated from IC50 values using the Cheng-Prusoff equation assuming a competitive mode of inhibition.

T1 sequence (P51812 whole entry): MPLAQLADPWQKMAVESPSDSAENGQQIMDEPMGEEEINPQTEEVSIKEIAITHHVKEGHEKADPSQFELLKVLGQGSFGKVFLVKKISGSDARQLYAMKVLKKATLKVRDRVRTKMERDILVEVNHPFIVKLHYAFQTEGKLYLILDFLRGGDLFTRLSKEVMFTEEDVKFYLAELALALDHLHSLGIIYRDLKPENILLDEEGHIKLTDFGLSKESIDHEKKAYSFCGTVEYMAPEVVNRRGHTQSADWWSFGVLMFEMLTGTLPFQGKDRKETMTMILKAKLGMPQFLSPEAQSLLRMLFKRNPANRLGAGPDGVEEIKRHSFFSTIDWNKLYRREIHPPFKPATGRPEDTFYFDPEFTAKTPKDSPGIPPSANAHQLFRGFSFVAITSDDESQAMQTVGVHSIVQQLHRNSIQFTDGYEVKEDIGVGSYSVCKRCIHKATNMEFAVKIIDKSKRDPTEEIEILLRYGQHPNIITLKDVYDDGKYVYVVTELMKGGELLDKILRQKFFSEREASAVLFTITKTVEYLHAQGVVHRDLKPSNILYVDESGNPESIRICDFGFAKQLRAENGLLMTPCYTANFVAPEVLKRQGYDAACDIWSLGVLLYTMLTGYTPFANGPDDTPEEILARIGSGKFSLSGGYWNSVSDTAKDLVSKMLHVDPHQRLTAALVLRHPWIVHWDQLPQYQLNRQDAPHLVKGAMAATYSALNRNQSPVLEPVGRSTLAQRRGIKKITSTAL

Row | Compound | IC50
1 | N#Cc1cccc(N2C(=O)[C@@H](CF)N(C3CCCC3)c3nc(Nc4ccc5[nH]ncc5c4)ncc32)c1 [Example 222, 3-[(7S)-8-cyclopentyl-7-(fluoromethyl)-2-(1H-indazol-5-ylamino)-6-oxo-7,8-dihydropteridin-5(6H)-yl]benzonitrile] | ≤ 100 nM
2 | C[C@@H]1C(=O)N(c2cccc(C#N)c2)c2cnc(Nc3cc(F)c4[nH]ncc4c3)nc2N1C1CCCC1 [Example 219, 3-[(7R)-8-cyclopentyl-2-[(7-fluoro-1H-indazol-5-yl)amino]-7-methyl-6-oxo-7,8-dihydropteridin-5(6H)-yl]benzonitrile] | ≤ 100 nM
3 | C[C@@H]1C(=O)N(c2cccc(C#N)c2)c2cnc(Nc3ccc4[nH]nc(C#N)c4c3)nc2N1C1CCCCC1 [compound 157, 5-{[(7R)-5-(3-cyanophenyl)-8-cyclohexyl-7-methyl-6-oxo-5,6,7,8-tetrahydropteridin-2-yl]amino}-1H-indazole-3-carbonitrile] | 100 to 1000 nM
4 | COc1ccc(N2C(=O)[C@@H](C)N(C3CCOCC3)c3nc(Nc4ccc5[nH]nc(F)c5c4)ncc32)cc1OC [compound 187, (7R)-5-(3,4-dimethoxyphenyl)-2-[(3-fluoro-1H-indazol-5-yl)amino]-7-methyl-8-(tetrahydro-2H-pyran-4-yl)-7,8-dihydropteridin-6(5H)-one] | ≤ 100 nM
5 | C[C@@H]1C(=O)N(c2cccc(C#N)c2)c2cnc(Nc3ccc4[nH]ncc4c3)nc2N1C1CCOCC1 [compound 184, 3-[(7R)-2-(1H-indazol-5-ylamino)-7-methyl-6-oxo-8-(tetrahydro-2H-pyran-4-yl)-7,8-dihydropteridin-5(6H)-yl]benzonitrile] | ≤ 100 nM

Further lines, results first:

Row | IC50 | Compound
6 | ≤ 100 nM | C[C@@H]1C(=O)N(c2cccc(F)c2)c2cnc(Nc3ccc4[nH]ncc4c3F)nc2N1C1CCCCC1 [compound 120, (7R)-8-cyclohexyl-2-[(4-fluoro-1H-indazol-5-yl)amino]-5-(3-fluorophenyl)-7-methyl-7,8-dihydropteridin-6(5H)-one]
7 | > 1000 nM | CC(C)CCN1c2nc(N[C@H]3CC[C@@H](O)CC3)ncc2N(c2ccccc2)C(=O)C1C (relative stereo) [Example 12, 2-[(cis-4-hydroxycyclohexyl)amino]-7-methyl-8-(3-methylbutyl)-5-phenyl-7,8-dihydropteridin-6(5H)-one]
8 | > 1000 nM | C[C@@H]1C(=O)N(c2ccccc2)c2cnc(Nc3ccc4[nH]ncc4c3)nc2N1CCN(C)C [Example 73, (7R)-8-[2-(dimethylamino)ethyl]-2-(1H-indazol-5-ylamino)-7-methyl-5-phenyl-7,8-dihydropteridin-6(5H)-one]
9 | ≤ 100 nM | C[C@@H]1C(=O)N(c2cccc(C#N)c2)c2cnc(Nc3cc(F)c(O)c(F)c3)nc2N1[C@H]1CC[C@H](C)CC1 [compound 243, 3-[(7R)-2-[(3,5-difluoro-4-hydroxyphenyl)amino]-7-methyl-8-(trans-4-methylcyclohexyl)-6-oxo-7,8-dihydropteridin-5(6H)-yl]benzonitrile]
10 | ≤ 100 nM | C[C@@H]1C(=O)N(c2cccc(C#N)c2)c2cnc(Nc3cc(Cl)c4[nH]ncc4c3)nc2N1C1CCCCC1 [compound 97, 3-[(7R)-2-[(7-chloro-1H-indazol-5-yl)amino]-8-cyclohexyl-7-methyl-6-oxo-7,8-dihydropteridin-5(6H)-yl]benzonitrile]
11 | ≤ 100 nM | C[C@@H]1C(=O)N(c2cccc(C#N)c2)c2cnc(Nc3cc(F)c(O)c(F)c3)nc2N1C1CCCCC1 [compound 158, 3-[(7R)-8-cyclohexyl-2-[(3,5-difluoro-4-hydroxyphenyl)amino]-7-methyl-6-oxo-7,8-dihydropteridin-5(6H)-yl]benzonitrile]
12 | ≤ 100 nM | C[C@@H]1C(=O)N(c2cccc(C#N)c2)c2cnc(Nc3ccc4c(c3)CS(=O)(=O)N4)nc2N1C1CCCCC1 [compound 174, 3-[(7R)-8-cyclohexyl-2-[(2,2-dioxido-1,3-dihydro-2,1-benzothiazol-5-yl)amino]-7-methyl-6-oxo-7,8-dihydropteridin-5(6H)-yl]benzonitrile]
